{"source": "patent EP1223923B1", "about": "“UNSATURATED ARYL SULFONES FOR PROTECTING NORMAL CELLS FROM CYTOTOXICITY OF CHEMOTHERAPEUTIC AGENTS” (Temple University - Of The Commonwealth System of Higher …, priority 1999, dated 2001)", "type_in_all_cases": "cell-based", "key": {"[1]": {"assay": "Plating efficiency (colony-forming ability) of normal human fibroblasts", "details": "hfl-1 cells, 24 hour incubation with drug, replated, colonies counted after 20 days, read-out: concentration of the drug causing 50% inhibition in plating efficiency", "description": "HFL-1 cells (normal, human diploid lung fibroblasts) purchased from ATCC were plated after first passage at low density (2.0 x 10^5cells) per well (6 well dishes) in one ml of growth medium (DMEM completed with 10% fetal bovine serum and pen/strep). Twenty-four hours later, (E)-4-fluorostyryl-4-chlorobenzylsulfone was added to each well at the following final concentrations; 0 µM, 2.5. µM, 5.0 µM, 25 µM, 50 µM, and 75 µM. After a 24 hour incubation period, the wells were washed 3x with 5 ml normal growth medium and each well was trypsinized and cell counts were determined. To determine colony-forming ability, the cells from each treatment were then serial diluted and replated into 100mm dishes such that each group was split into 3 replating groups consisting of 10, 100, 200 cells per plate. The groups were plated in triplicate. The cells were incubated for 20 days under normal growth conditions and colonies were counted after staining with modified Wright stain (Sigma). The number of colonies from each plate in triplicate were determined and the average for each group was plotted. The concentration of the drug causing 50% inhibition in plating efficiency was calculated and found to be 70 µM."}, "[2]": {"test_system": "Normal human HFL-1 cells", "assay": "Cytoprotection assay against paclitaxel", "parameters": "key: +: A compound was deemed to be active if the number of viable cells following the combination treatment was higher than the number of cells after treatment with paclitaxel alone", "details": "2.0 or 10 µM sulfone; paclitaxel (250 nM) at time zero or 24 hours later; viable cells after 96 hours of paclitaxel", "description": "The cytoprotective activity of the same styryl benzylsulfones was determined as follows. Normal human HFL-1 cells were plated at a cell density of 1.0 x 10^5 cells per well in six culture plates. Styryl benzylsulfone was added 24 hours later at a final concentration of either 2.0 or 10 µM. The time of styryl sulfone addition was designated as time zero. Paclitaxel (250 nM) was added at either time zero, or 24 hours after time zero. The total number of viable cells was determined, as described above, after 96 hours of paclitaxel treatment. A compound was deemed to be active if the number of viable cells following the combination treatment was higher than the number of cells after treatment with paclitaxel alone. Table 7: Antitumor and Cytoprotective Effect of Styryl Sulfones"}, "[3]": {"test_system": "HFL-1 cells", "assay": "Protection of normal human fibroblasts from anticancer agent cytotoxicity (protection ratio, Trypan blue exclusion)", "details": "2.0 µM sulfone 24 hour preincubation, viable cells 96 hours after cytotoxic agent", "description": "HFL-1 cells were plated at a cell density of 1.0 x 10^5 in 1 ml of medium. Twenty-four hours following plating, 2.0 µM of (E)-4-fluorostyryl-4-chlorobenzylsulfone was added to the medium. Following a 24 hour preincubation with the styryl sulfone, the various cytotoxic agents listed in Table 6 were added to the cells, at the concentrations given in Table 6. the number of viable cells was determined by Trypan blue exclusion using a hematocytometer 96 hours after exposure to cytotoxic agent. The \"Protection Ratio\" is the number of viable cells following treatment with (E)-4-fluorostyryl-4-chlorobenzylsulfone and cytotoxic agent, divided by the number of viable cells remaining after treatment with cytotoxic agent alone. A protection ratio of 2 or more is considered highly significant, while is protection ratio of 1.5-2 is considered less significant. […] Table 6: Protective Effect of (E)-4-Fluorostyryl-4-Chlorobenzylsulfone on HFL-1 Cells Treated with Cytotoxic Drugs"}}}
{"smiles": "O=S(=O)(/C=C/c1ccc(F)cc1)Cc1ccc(Cl)cc1", "note": "[Example 7, (E)-4-fluorostyryl-4-chlorobenzyl sulfone]", "values": [{"measurement": "CC50 at 24 h", "setting": "[1]", "result": 70, "unit": "µM"}, {"measurement": "Cytoprotection", "setting": "[2]", "result": "+"}, {"measurement": "Protection Ratio", "setting": "[3]; 5-fluorouracil 20 µM (DNA antimetabolite)", "result": 1.3}, {"measurement": "Protection Ratio", "setting": "[3]; camptothecin 0.5 µM (topoisomerase I inhibitor)", "result": 2.1}, {"measurement": "Protection Ratio", "setting": "[3]; cisplatin 5.0 µM (alkylating agent)", "result": 1.3}, {"measurement": "Protection Ratio", "setting": "[3]; doxorubicin 0.4 µM (topoisomerase II inhibitor)", "result": 1.5}, {"measurement": "Protection Ratio", "setting": "[3]; etoposide 3.0 µM (topoisomerase II inhibitor)", "result": 3.5}, {"measurement": "Protection Ratio", "setting": "[3]; mitoxantrone 0.3 µM (topoisomerase II inhibitor)", "result": 2.0}, {"measurement": "Protection Ratio", "setting": "[3]; paclitaxel 0.25 µM (antimitotic)", "result": 2.5}, {"measurement": "Protection Ratio", "setting": "[3]; vincristine 0.25 µM (antimitotic)", "result": 3.0}]}
{"smiles": "O=S(=O)(/C=C/c1ccc(Cl)cc1)Cc1ccc(Cl)cc1", "note": "[Example 8, (E)-4-chlorostyryl-4-chlorobenzyl sulfones]", "values": [{"measurement": "Cytoprotection", "setting": "[2]", "result": "+"}]}
{"smiles": "O=S(=O)(/C=C/c1ccc(F)cc1Cl)Cc1ccc(Cl)cc1", "note": "[Example 9, (E)-2-chbro-4-fluorostryryl4-chlorobenzl sulfone]", "values": [{"measurement": "Cytoprotection", "setting": "[2]", "result": "+"}]}
{"smiles": "O=C(O)c1ccc(/C=C/S(=O)(=O)Cc2ccc(Cl)cc2)cc1", "note": "[Example 10, (E)-4-carboxystyryl-chlorobenzyl sulfone]", "values": [{"measurement": "Cytoprotection", "setting": "[2]", "result": "+"}]}
{"smiles": "O=S(=O)(/C=C/c1ccc(F)cc1)Cc1ccc(Cl)cc1Cl", "note": "[Example 11, (E)-4-fluorostyryl-2,4-dichlorobenzyl sulfone]", "values": [{"measurement": "Cytoprotection", "setting": "[2]", "result": "+"}]}
{"smiles": "O=C(C(=Cc1ccc(F)cc1)S(=O)(=O)c1ccccc1)c1ccccc1", "note": "[Example 12, 2-(phenylsulfonyl)-1-phenyl-3-(4-fluorophenyl)-2-propen-1-one]", "values": [{"measurement": "Cytoprotection", "setting": "[2]", "result": "+"}]}
